How the values were obtained:
Assay in all cases: Cerep enzyme and cell-based assays
Type in all cases: biochemical
ATPase (Na+/K+) = details: 5 µM
acetylcholinesterase (h) = target: T1, acetylcholinesterase (h) (Homo sapiens, UniProt P22303); details: read-out: % Inhibition of Control Values
T1 construct: Eurofins Pharma Discovery Services (CEREP diversity panel, outsourced assay)

HDAC11 (h) = target: T2, HDAC11 (h) (Homo sapiens, UniProt Q96DB2); details: read-out: % Inhibition of Control Values
T2 construct: Eurofins Pharma Discovery Services (CEREP diversity panel, outsourced assay)
T2 sequence (Q96DB2 whole entry): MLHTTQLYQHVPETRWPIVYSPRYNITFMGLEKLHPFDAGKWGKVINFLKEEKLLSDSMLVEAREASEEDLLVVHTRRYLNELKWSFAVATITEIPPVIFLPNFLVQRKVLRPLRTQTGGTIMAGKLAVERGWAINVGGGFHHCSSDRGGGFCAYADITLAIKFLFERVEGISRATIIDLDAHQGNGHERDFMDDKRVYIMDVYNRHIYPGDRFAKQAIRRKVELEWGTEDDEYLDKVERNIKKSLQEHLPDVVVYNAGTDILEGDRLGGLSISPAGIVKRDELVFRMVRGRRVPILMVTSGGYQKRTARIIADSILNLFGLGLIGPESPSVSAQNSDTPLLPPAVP

T1 sequence (P22303 32-614): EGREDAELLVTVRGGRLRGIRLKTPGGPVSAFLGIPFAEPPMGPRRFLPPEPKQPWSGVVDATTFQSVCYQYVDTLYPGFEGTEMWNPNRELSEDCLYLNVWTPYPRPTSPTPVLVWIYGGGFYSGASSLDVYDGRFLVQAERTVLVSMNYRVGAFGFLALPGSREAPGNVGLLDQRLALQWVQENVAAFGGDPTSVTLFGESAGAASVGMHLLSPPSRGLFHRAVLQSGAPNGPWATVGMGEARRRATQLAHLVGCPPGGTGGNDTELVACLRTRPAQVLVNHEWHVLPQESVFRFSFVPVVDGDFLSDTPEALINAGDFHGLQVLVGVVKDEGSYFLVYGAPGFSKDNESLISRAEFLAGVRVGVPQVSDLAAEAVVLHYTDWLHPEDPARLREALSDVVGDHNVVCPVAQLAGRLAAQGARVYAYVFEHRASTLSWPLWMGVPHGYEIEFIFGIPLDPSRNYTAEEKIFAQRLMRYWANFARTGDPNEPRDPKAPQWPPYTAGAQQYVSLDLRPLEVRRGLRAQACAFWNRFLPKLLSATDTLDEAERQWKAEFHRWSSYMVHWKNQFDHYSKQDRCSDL

Q: With Cc1ccc(-n2nc3c(=O)n(CCCC(=O)NCC(C)c4ccccc4)nc(C)c3c2C)cc1 (stereo not drawn) [2k] as the molecule, how does the “% Inhibition of Control Values” (ATPase (Na+/K+)) read?
A: The value was 7%.

Q: With c1ccc(Cn2c(-c3ccc(OC[C@H](C4CCNCC4)n4c(-c5ccccc5)nc5ccccc54)cc3)nc3ccccc32)cc1 [Deltarasin, reference compound] as the molecule, how does the inhibition at 5 µM (acetylcholinesterase (h)) read?
A: The inhibition at 5 µM was 9%.

Q: And the inhibition at 5 µM (HDAC11 (h))?
A: The inhibition at 5 µM was 37%.

From paper PMC4843002, “Identification of pyrazolopyridazinones as PDEδ inhibitors” (Nature Communications, 2016)
